Test results as given in patent US20230092890A1, “1, 3, 4-Oxadiazole derivative compounds as histone deacetylase 6 inhibitor, and the pharmaceutical composition comprising the same” (Chong Kun Dang Pharmaceutical Corp., priority 2019, published 2023).
pIC50: −log10 of the molar value.

Columns and labels:
HDAC6 human recombinant = target: T1, HDAC6 human recombinant (Homo sapiens, UniProt Q9UBN7); experiment: HDAC enzyme activity inhibition (in vitro), HDAC6 assay; format: biochemical; conditions: samples at 0.1, 1, 10, 100 and 1000 nM; 37° C. 60 minutes; fluorescence Ex 390, Em 460; read-out: HDAC6 IC50
T1 construct: purchased Calbiochem 382180
T1 sequence (Q9UBN7 1-1215): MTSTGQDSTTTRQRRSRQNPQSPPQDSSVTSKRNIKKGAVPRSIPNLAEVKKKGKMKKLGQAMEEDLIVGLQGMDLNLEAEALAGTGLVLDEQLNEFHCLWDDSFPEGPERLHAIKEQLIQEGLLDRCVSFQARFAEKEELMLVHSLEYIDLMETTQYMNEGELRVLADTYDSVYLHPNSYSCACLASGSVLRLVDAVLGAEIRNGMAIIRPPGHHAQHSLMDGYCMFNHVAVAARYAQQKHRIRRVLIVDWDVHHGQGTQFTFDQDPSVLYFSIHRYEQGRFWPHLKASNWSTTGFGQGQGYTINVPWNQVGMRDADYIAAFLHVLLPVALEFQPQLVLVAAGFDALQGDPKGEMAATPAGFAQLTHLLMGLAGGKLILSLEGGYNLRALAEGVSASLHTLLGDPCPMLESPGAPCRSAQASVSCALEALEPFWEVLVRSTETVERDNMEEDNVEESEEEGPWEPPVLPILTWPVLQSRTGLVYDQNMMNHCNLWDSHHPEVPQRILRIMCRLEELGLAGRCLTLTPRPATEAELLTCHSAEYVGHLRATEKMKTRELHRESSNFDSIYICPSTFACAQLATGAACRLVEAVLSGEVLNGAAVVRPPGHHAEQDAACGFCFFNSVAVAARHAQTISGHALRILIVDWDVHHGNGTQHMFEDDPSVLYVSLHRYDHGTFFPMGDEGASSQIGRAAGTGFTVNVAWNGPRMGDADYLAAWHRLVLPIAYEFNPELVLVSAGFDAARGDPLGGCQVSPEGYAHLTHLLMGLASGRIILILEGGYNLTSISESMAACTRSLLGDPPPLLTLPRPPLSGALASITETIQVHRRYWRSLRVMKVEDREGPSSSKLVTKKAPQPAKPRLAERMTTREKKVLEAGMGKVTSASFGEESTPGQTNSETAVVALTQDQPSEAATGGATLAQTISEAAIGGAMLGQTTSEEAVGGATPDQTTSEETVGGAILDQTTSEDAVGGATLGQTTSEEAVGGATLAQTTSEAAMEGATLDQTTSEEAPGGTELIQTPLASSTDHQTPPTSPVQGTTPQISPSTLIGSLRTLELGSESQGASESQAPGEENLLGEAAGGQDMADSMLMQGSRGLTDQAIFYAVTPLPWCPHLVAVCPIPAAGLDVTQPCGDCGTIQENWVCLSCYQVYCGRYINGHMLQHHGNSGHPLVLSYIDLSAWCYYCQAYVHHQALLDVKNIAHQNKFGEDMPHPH
Method in brief: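 Fluorescence (Ex 390, Em 460) read after a 37° C, 60 min enzyme reaction and a further 30 min developer step at 37° C. Uses recombinant human HDAC6; HDAC1 arm dosed at 100, 1000, 10000 nM.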

HDAC1 = target: T2, HDAC1 (Homo sapiens, UniProt Q13547); experiment: HDAC enzyme activity inhibition (in vitro), HDAC1 Fluorimetric Drug Discovery Assay Kit; format: biochemical; conditions: samples at 100, 1000 and 10000 nM; 37° C. 60 minutes; fluorescence Ex 390, Em 460; read-out: HDAC1 IC50
T2 construct: purchased Enzolifesciences BML-AK511
Method in brief: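 Fluorescence read-out (Ex 390/Em 460) after developer step, 30 min at 37° C, following a 60-min 37° C enzyme reaction. Test concentrations: HDAC1 kit, 100–10000 nM (three levels); recombinant human HDAC6, 0.1–1000 nM (five levels).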

T2 sequence (Q13547 whole entry): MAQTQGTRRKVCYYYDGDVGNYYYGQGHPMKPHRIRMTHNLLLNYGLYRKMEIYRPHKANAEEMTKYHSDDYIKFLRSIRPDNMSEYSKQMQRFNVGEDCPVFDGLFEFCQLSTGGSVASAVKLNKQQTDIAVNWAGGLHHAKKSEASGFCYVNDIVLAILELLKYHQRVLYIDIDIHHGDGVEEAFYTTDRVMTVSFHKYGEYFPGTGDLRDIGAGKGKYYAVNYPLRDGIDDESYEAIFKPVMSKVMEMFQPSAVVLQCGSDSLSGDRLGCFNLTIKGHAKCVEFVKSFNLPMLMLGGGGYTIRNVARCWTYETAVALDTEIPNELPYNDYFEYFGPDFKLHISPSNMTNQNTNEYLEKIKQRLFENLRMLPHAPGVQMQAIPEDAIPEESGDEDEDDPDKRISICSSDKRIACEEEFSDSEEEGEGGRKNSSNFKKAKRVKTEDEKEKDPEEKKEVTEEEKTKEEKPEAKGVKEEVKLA

CN1CCC(n2c(=O)n(Cc3ccc(-c4nnc(C(F)F)o4)cn3)c3cc(F)c(-c4cccnc4)cc32)CC1 [Compound 155, 1-((5-(5-(difluoromethyl)-1,3,4-oxadiazole-2-yl)pyridine-2-yl)methyl)-6-fluoro-3-(1-methylpiperidine-4-yl)-5-(pyridine-3-yl)-1,3-dihydro-2H-benzo[d]imidazole-2-one]
pIC50 (HDAC6 human recombinant): 7.70
pIC50 (HDAC1): < 5.00

CN1CCC(c2ccc3c(c2)n(C2CCN(C)CC2)c(=O)n3Cc2ccc(-c3nnc(C(F)F)o3)cc2F)CC1 [Compound 156, 1-(4-(5-(difluoromethyl)-1,3,4-oxadiazole-2-yl)-2-fluorobenzyl)-3,5-bis(1-methylpiperidine-4-yl)-1,3-dihydro-2H-benzo[d]imidazole-2-one]
pIC50 (HDAC6 human recombinant): 6.99
pIC50 (HDAC1): < 5.00

CC(=O)N1CCC(c2ccc3c(c2)n(C2CCN(C)CC2)c(=O)n3Cc2ccc(-c3nnc(C(F)F)o3)cc2F)CC1 [Compound 157, 5-(1-acetylpiperidine-4-yl)-1-(4-(5-(difluoromethyl)-1,3,4-oxadiazole-2-yl)-2-fluorobenzyl)-3-(1-methylpiperidine-4-yl)-1,3-dihydro-2H-benzo[d]imidazole-2-one]
pIC50 (HDAC6 human recombinant): 6.80
pIC50 (HDAC1): < 5.00

CN1CCC(n2c(=O)n(Cc3ccc(-c4nnc(C(F)F)o4)cc3F)c3ccc(C4CCN(S(C)(=O)=O)CC4)cc32)CC1 [Compound 158, 1-(4-(5-(difluoromethyl)-1,3,4-oxadiazole-2-yl)-2-fluorobenzyl)-3-(1-methylpiperidine-4-yl)-5-(1-(methylsulfonyl)piperidine-4-yl)-1,3-dihydro-2H-benzo[d]imidazole-2-one]
pIC50 (HDAC6 human recombinant): 6.86
pIC50 (HDAC1): < 5.00

CN1CCC(n2c(=O)n(Cc3ccc(-c4nnc(C(F)F)o4)cc3F)c3ccc(-c4cccc(F)c4)cc32)CC1 [Compound 159, 1-(4-(5-(difluoromethyl)-1,3,4-oxadiazole-2-yl)-2-fluorobenzyl)-5-(3-fluorophenyl)-3-(1-methylpiperidine-4-yl)-1,3-dihydro-2H-benzo[d]imidazole-2-one]
pIC50 (HDAC6 human recombinant): 7.15
pIC50 (HDAC1): < 5.00

CN1CCC(n2c(=O)n(Cc3ccc(-c4nnc(C(F)F)o4)cc3F)c3ccc(-c4ccccc4F)cc32)CC1 [Compound 160, 1-(4-(5-(difluoromethyl)-1,3,4-oxadiazole-2-yl)-2-fluorobenzyl)-5-(2-fluorophenyl)-3-(1-methylpiperidine-4-yl)-1,3-dihydro-2H-benzo[d]imidazole-2-one]
pIC50 (HDAC6 human recombinant): 7.04
pIC50 (HDAC1): < 5.00

CN1CCC(n2c(=O)n(Cc3ccc(-c4nnc(C(F)F)o4)cc3F)c3ccc(-c4ccncc4)cc32)CC1 [Compound 161, 1-(4-(5-(difluoromethyl)-1,3,4-oxadiazole-2-yl)-2-fluorobenzyl)-3-(1-methylpiperidine-4-yl)-5-(pyridine-4-yl)-1,3-dihydro-2H-benzo[d]imidazole-2-one]
pIC50 (HDAC6 human recombinant): 7.40
pIC50 (HDAC1): < 5.00

CN1CCC(n2c(=O)n(Cc3ccc(-c4nnc(C(F)F)o4)cc3F)c3ccc(-c4ccoc4)cc32)CC1 [Compound 162, 1-(4-(5-(difluoromethyl)-1,3,4-oxadiazole-2-yl)-2-fluorobenzyl)-5-(furan-3-yl)-3-(1-methylpiperidine-4-yl)-1,3-dihydro-2H-benzo[d]imidazole-2-one]
pIC50 (HDAC6 human recombinant): 7.41
pIC50 (HDAC1): < 5.00

Cc1ccc(-c2ccc3c(c2)n(C2CCN(C)CC2)c(=O)n3Cc2ccc(-c3nnc(C(F)F)o3)cc2F)o1 [Compound 163, 1-(4-(5-(difluoromethyl)-1,3,4-oxadiazole-2-yl)-2-fluorobenzyl)-5-(5-methylfuran-2-yl)-3-(1-methylpiperidine-4-yl)-1,3-dihydro-2H-benzo[d]imidazole-2-one]
pIC50 (HDAC6 human recombinant): 7.04
pIC50 (HDAC1): < 5.00

COc1ccc(-c2ccc3c(c2)n(C2CCN(C)CC2)c(=O)n3Cc2ccc(-c3nnc(C(F)F)o3)cc2F)cn1 [Compound 164, 1-(4-(5-(difluoromethyl)-1,3,4-oxadiazole-2-yl)-2-fluorobenzyl)-5-(6-methoxypyridine-3-yl)-3-(1-methylpiperidine-4-yl)-1,3-dihydro-2H-benzo[d]imidazole-2-one]
pIC50 (HDAC6 human recombinant): 7.21
pIC50 (HDAC1): < 5.00

Cn1c(=O)n(Cc2ccc(-c3nnc(C(F)F)o3)cn2)c2cc(F)c(-c3cccnc3)cc21 [Compound 165, 1-((5-(5-(difluoromethyl)-1,3,4-oxadiazole-2-yl)pyridine-2-yl)methyl)-6-fluoro-3-methy 1-5-(pyridine-3-yl)-1,3-dihydro-2H-benzo[d]imidazole-2-one]
pIC50 (HDAC6 human recombinant): 8.00
pIC50 (HDAC1): < 5.00

Cn1c(=O)n(Cc2ccc(-c3nnc(C(F)F)o3)cn2)c2cc(F)c(-c3cccc(F)c3)cc21 [Compound 166, 1-((5-(5-(difluoromethyl)-1,3,4-oxadiazole-2-yl)pyridine-2-yl)methyl)-6-fluoro-5-(3-fluorophenyl)-3-methyl-1,3-dihydro-2H-benzo[d]imidazole-2-one]
pIC50 (HDAC6 human recombinant): 7.47
pIC50 (HDAC1): < 5.00

Cn1c(=O)n(Cc2ccc(-c3nnc(C(F)F)o3)cn2)c2cc(F)c(-c3ccc(C(F)(F)F)cc3)cc21 [Compound 167, 1-((5-(5-(difluoromethyl)-1,3,4-oxadiazole-2-yl)pyridine-2-yl)methyl)-6-fluoro-3-methy 1-5-(4-(trifluoromethyl)phenyl)-1,3-dihydro-2H-benzo[d]imidazole-2-one]
pIC50 (HDAC6 human recombinant): 6.86
pIC50 (HDAC1): < 5.00

Cn1c(=O)n(Cc2ccc(-c3nnc(C(F)F)o3)cn2)c2cc(F)c(-c3ccoc3)cc21 [Compound 168, 1-((5-(5-(difluoromethyl)-1,3,4-oxadiazole-2-yl)pyridine-2-yl)methyl)-6-fluoro-5-(furan-3-yl)-3-methyl-1,3-dihydro-2H-benzo[d]imidazole-2-one]
pIC50 (HDAC6 human recombinant): 7.40
pIC50 (HDAC1): < 5.00

Cn1c(=O)n(Cc2ccc(-c3nnc(C(F)F)o3)cc2F)c2cc(F)c(-c3cccnc3)cc21 [Compound 169, 1-(4-(5-(difluoromethyl)-1,3,4-oxadiazole-2-yl)-2-fluorobenzyl)-6-fluoro-3-methyl-5-(pyridine-3-yl)-1,3-dihydro-2H-benzo[d]imidazole-2-one]
pIC50 (HDAC6 human recombinant): 7.68
pIC50 (HDAC1): < 5.00

Cc1ccc(-c2cc3c(cc2F)n(Cc2ccc(-c4nnc(C(F)F)o4)cc2F)c(=O)n3C)o1 [Compound 170, 1-(4-(5-(difluoromethyl)-1,3,4-oxadiazole-2-yl)-2-fluorobenzyl)-6-fluoro-3-methyl-5-(5-methylfuran-2-yl)-1,3-dihydro-2H-benzo[d]imidazole-2-one]
pIC50 (HDAC6 human recombinant): 6.68
pIC50 (HDAC1): < 5.00

CC(=O)N1CCC(n2c(=O)n(Cc3ccc(-c4nnc(C(F)F)o4)cn3)c3c(F)cccc32)CC1 [Compound 171, 1-(1-acetylpiperidine-4-yl)-3-((5-(5-(difluoromethyl)-1,3,4-oxadiazole-2-yl)pyridine-2-yl)methyl)-4-fluoro-1,3-dihydro-2H-benzo[d]imidazole-2-one]
pIC50 (HDAC6 human recombinant): 7.40
pIC50 (HDAC1): < 5.00

CC(=O)N1CCC(n2c(=O)n(Cc3ccc(-c4nnc(C(F)F)o4)cc3)c3cc(F)ccc32)CC1 [Compound 172, 1-(1-acetylpiperidine-4-yl)-3-(4-(5-(difluoromethyl)-1,3,4-oxadiazole-2-yl)benzyl)-5-fluoro-1,3-dihydro-2H-benzo[d]imidazole-2-one]
pIC50 (HDAC6 human recombinant): 7.47
pIC50 (HDAC1): < 5.00

CC(=O)N1CCC(n2c(=O)n(Cc3ccc(-c4nnc(C(F)F)o4)cn3)c3cc(F)c(F)cc32)CC1 [Compound 173, 1-(1-acetylpiperidine-4-yl)-3-((5-(5-(difluoromethyl)-1,3,4-oxadiazole-2-yl)pyridine-2-yl)methyl)-5,6-difluoro-1,3-dihydro-2H-benzo[d]imidazole-2-one]
pIC50 (HDAC6 human recombinant): 7.51
pIC50 (HDAC1): < 5.00
